Laboratory results taken from patent US5919631A, “Method of determining the degree of aggregation of the β-A4 peptide” (Hoechst Marion Roussel, Inc., priority 1996, dated 1999).
Read-outs that look alike come from different tables or passages of the source.

Molecular target: β-amyloid (βA4) peptide (Homo sapiens, UniProt P05067)
Settings: 37° C.; for percent decrease in aggregation of β-amyloid: 25 μM β-amyloid; for percent decrease in aggregation of β-amyloid / percentage of increase of aggregation: 48 hours
Description: β-amyloid (also known as (βA-4) peptide was dissolved in 100% dimethylsulfoxide (DMSO) at 10 mg/ml (or 2500 μM) concentration. The resultant solution was diluted to 1 mg/ml (or 250 μM) stock in Phosphate Buffered Saline (PBS), pH 7.4, just prior to setting up the assay and dispensed in individual sample wells of a Corning 96-well plate at 16 μl per well (i.e. a final concentration of 25 μM). All treatments were done in triplicate.
In this example, the candidate compound was added to the test wells at three different concentrations (250 μM, 500 μM and 1 mM). Total volume in each well was brought up to 160 μl with PBS. For untreated control wells, no compound was added to the β-amyloid peptide, and the total volume was made to 160 μl with PBS. The plates were sealed with parafilm and incubated at 37° C. for 48 hours.
At the end of the incubation period, the plates were taken out and 25 μl of Bio-Rad protein assay dye reagent (Bradford dye) was added to all the wells with samples. A standard curve was also set up at this time for estimation of fresh (also considered as unaggregared) peptide absorbance. The dye was mixed by pipeting and the plates quickly spun at 2500 rpm to remove bubbles.
The Absorbance was read at 595 nm in a Dynatech MR5000 plate reader 15 minutes after adding the dye.
The procedure of Example 1 was repeated except that hydrogen peroxide (10 μl of 30% stock) was added to the wells in a 96-well plate with 16 μl of the 1 mg/ml β-amyloid stock. The final volume was then brought up to 160 μl by adding 134 μl of PBS to these wells. The plate was sealed and incubated at 37° C. for 48 hours.
At the end of the incubation period, the plates were taken out and 25 μl of Bio-Rad protein assay dye reagent (Bradford dye) was added to all the wells with samples as in Example 1. A standard curve was again used for estimation of fresh (also considered as unaggregated) peptide absorbance. The dye was mixed by pipeting and the plates quickly spun at 2500 rpm to remove bubbles.
The absorbance was read at 595 nm in the Dynatech MR5000 plate reader 15 minutes after adding the dye. The amount of aggregation was estimated by subtracting background and taking the difference between the fresh and hydrogen peroxide treated β-amyloid readings. The difference was expressed as percent over fresh or unaggregated peptide.

Chain of β-amyloid (βA4) peptide (P05067 672-713 limits assumed): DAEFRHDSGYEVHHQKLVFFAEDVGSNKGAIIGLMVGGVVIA

OO [hydrogen peroxide]
percentage of aggregation (difference between fresh and treated β-amyloid, percent over fresh peptide) (10 μl of 30% stock in 160 μl, after 48 hrs): 97.7%

CCCn1cnc2c1c(=O)n(CCCCC(C)=O)c(=O)n2C [propentofylline, 1-(5'-oxohexyl)-3-methyl-7-propyl-2,6-(1H,3H)-purinedione]
percent decrease in aggregation of β-amyloid (500 μM compound): 29.68% | percent decrease in aggregation of β-amyloid (1 mM compound): 37.4%

pentosan polysulfate
percentage of increase of aggregation (0.5 μM compound): 40.8% | percentage of increase of aggregation (5 μM compound): 57.1% | percentage of increase of aggregation (50 μM compound): 62.9%
